Columns and labels:
p42^mapk = target: T1, p42^mapk (Mus musculus, UniProt P63085); assay: Inhibition constant of the ATP derivative / Km for ATP, p42^mapk assay; format: biochemical; conditions: 20 μM ATP
T1 construct: made in house
Text: (§1) [γ-^32 P] ATP was synthesized according to the procedure set forth in Johnson et al., Advances in Cyclic Nucleotide Research, 10:135-167 (1979). The catalytic subunit of cyclic-AMP-dependent protein kinase was purchased from Promega. p60^c-arc was obtained from the Department of Microbiology, University of Virginia. Recombinant p42^mapk was purified as described in Haystead et al., (1992) FEBS Lett., 306:17-22. STE7 antibody was obtained from the University of Vancouver, Canada.
(§2) The 42-kDa MAP kinase (p42^mapk) and MAPKK were assayed as described previously (Haystead et al. (1992) FEBS. Lett., 306:17-22). The cyclic-A kinase assays (30 μl) included 1 μg cyclic-A kinase, 2 mM Kemptide, 50 mM Hepes, pH 7.4, 1 mM dithiothreitol, 200 μM ATP, 5 mM MgCl2. […]
(§3) In order to assess the effectiveness of adenosine 5'-(γ-4-aminophenyl)triphosphate as an affinity ligand for protein kinases, the inhibition constants (Ki) of the derivative were determined for four different protein kinases, namely, p42^mapk, cyclic-A kinase, MAPKK and p60^c-arc (Table 1). […] This also facilitated comparisons for the relative binding constants determined with other ATP analogs (Flockhart et al. (1984) Eur. J. Biochem., 140:289-295; Hoppe et al. (1972) Eur. J. Biochem., 80:369-372; Taylor et al. (1990) Peptides and Protein Phosphorylation (Kemp et al.) pp 2-32, CRC Press).

MAPKK = target: T2, MAPKK (Oryctolagus cuniculus, UniProt P29678); assay: Inhibition constant of the ATP derivative / Km for ATP, MAPKK assay; format: biochemical, rabbit
T2 construct: MAPKK, from rabbit skeletal muscle, was partially purified 600-fold; from tissue; host or cells: skeletal muscle (back and hind-limb) of a female New Zealand white rabbit
Procedure: A fed female New Zealand white rabbit was euthanized by lethal injection with phenobarbital via the marginal ear vein. The back and hind-limb skeletal muscle (300 g) were rapidly excised, minced and homogenized at 4° C. with 2.5 vol. solution C (50 mM 2-glycerophosphate, pH 7.3, 1.5 mM EGTA, 0.15 μM sodium orthovanidate, 1 mM dithiothreitol, 1 mM phenylmethanesulfonyl fluoride, 1 mM benzamidine) containing 6 μg/ml leupeptin. All subsequent steps were carried out at 4° C. […] The DEAE was packed into a glass column (20 cm×50 cm) washed with solution C until the absorbance at […] of the eluate was <0.005 absorbance. […]
as §3

p60^c-src = target: T3, p60^c-src (Homo sapiens, UniProt P12931); assay: Inhibition constant of the ATP derivative / Km for ATP, p60^c-src assay (peptide substrate); format: biochemical; conditions: 20 μM ATP
T3 construct: Department of Microbiology, University of Virginia (obtained from; not a purchase)
Text: as §1, §2, §3

[1] = tested on: four different protein kinases, namely, p42^mapk, cyclic-A kinase, MAPKK and p60^c-arc; assay: Inhibition of four protein kinases by the ATP derivative (summary over all enzymes); format: biochemical
Procedure: The 42-kDa MAP kinase (p42^mapk) and MAPKK were assayed as described previously (Haystead et al. (1992) FEBS. Lett., 306:17-22). The cyclic-A kinase assays (30 μl) included 1 μg cyclic-A kinase, 2 mM Kemptide, 50 mM Hepes, pH 7.4, 1 mM dithiothreitol, 200 μM ATP, 5 mM MgCl2. Reactions were terminated by spotting 25 μl assay mixture onto P81 paper as described in Haystead et al. (1992) FEBS Lett., 306:17-22. p60^c-arc assays were similar, except a 2 mM peptide (Rossomando et al., 1992) Proc. Natl. Acad. Sci., 89:5221-5225) was used as the substrate.
In order to assess the effectiveness of adenosine 5'-(γ-4-aminophenyl)triphosphate as an affinity ligand for protein kinases, the inhibition constants (Ki) of the derivative were determined for four different protein kinases, namely, p42^mapk, cyclic-A kinase, MAPKK and p60^c-arc (Table 1). The Ki was determined in the presence of 20 μM ATP. However, since the Km for ATP varied for each protein kinase tested, for comparative purposes it was convenient to determine the Ki /Km quotient (Table 1). This also facilitated comparisons for the relative binding constants determined with other ATP analogs (Flockhart et al. (1984) Eur. J. Biochem., 140:289-295; Hoppe et al. (1972) Eur. J. Biochem., 80:369-372; Taylor et al. (1990) Peptides and Protein Phosphorylation (Kemp et al.) pp 2-32, CRC Press).

Cyclic A kinase = Cyclic A kinase (Bos taurus, UniProt P00517); assay: Inhibition constant of the ATP derivative / Km for ATP, cyclic-A kinase assay (Kemptide substrate)
[2] = [Mg^2+] reduced to levels equimolar with free ATP

T3 sequence (P12931 whole entry): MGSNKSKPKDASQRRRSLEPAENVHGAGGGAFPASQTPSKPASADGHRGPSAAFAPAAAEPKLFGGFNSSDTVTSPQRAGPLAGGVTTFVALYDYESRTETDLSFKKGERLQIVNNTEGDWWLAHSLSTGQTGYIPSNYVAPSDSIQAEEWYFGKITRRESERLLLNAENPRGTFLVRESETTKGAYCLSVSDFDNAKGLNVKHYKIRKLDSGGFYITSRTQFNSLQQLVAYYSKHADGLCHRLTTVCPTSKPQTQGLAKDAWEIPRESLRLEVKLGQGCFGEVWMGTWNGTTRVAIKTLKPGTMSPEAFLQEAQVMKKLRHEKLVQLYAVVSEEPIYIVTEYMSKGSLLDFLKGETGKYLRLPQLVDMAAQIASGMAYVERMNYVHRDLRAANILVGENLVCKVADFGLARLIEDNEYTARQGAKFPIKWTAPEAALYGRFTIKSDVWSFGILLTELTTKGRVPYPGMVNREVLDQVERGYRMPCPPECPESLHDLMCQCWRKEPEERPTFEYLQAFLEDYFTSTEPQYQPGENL
T1 sequence (P63085 whole entry): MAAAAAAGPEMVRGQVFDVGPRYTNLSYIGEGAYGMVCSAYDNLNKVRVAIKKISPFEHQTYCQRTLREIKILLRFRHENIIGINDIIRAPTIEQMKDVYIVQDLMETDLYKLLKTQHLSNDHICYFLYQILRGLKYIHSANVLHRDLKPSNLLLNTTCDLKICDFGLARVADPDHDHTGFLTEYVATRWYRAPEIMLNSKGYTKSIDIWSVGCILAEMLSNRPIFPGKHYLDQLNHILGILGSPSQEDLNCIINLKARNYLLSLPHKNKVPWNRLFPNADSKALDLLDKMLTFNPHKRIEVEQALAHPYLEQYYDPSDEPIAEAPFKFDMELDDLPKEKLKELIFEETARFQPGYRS
T2 sequence (P29678 whole entry): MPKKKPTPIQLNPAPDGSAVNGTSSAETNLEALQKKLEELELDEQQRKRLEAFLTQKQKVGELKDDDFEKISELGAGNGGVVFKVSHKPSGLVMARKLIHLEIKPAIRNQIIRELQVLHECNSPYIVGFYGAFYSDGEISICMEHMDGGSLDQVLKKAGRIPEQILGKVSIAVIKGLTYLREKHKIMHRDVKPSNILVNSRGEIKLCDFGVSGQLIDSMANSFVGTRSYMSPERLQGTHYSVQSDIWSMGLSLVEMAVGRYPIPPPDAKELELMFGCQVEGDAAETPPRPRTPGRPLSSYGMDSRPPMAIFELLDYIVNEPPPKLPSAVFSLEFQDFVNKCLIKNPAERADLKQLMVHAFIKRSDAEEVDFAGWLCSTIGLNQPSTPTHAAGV

## Nc1ccc(OP(=O)(O)OP(=O)(O)OP(=O)(O)OC[C@H]2O[C@@H](n3cnc4c(N)ncnc43)[C@H](O)[C@@H]2O)cc1 [adenosine-5'-(γ-4-aminophenyl)triphosphate]
p42^mapk; Km for ATP
  Ki /Km: 10.02
p42^mapk; read-out: Ki ± SDM
  Ki: 75.2 ± 8.2 µM
MAPKK
  Ki: 176 ± 22.1 µM
MAPKK; MAPKK, 20 μM ATP, Km for ATP
  Ki /Km: 15.20
p60^c-src; Km for ATP
  Ki /Km: 19.35
p60^c-src; read-out: Ki ± SDM
  Ki: 120 ± 13.6 µM
[1]; 20 μM ATP
  competition with ATP: competes with ATP
[1]; 20 μM ATP, range over four enzymes
  Ki /Km quotient: 10-20
[1]; 20 μM ATP, range over four enzymes, read-out: apparent Ki values obtained against each enzyme
  Ki: 75 to 180 µM
[1]; [2]
  effect on the Ki /Km quotient of reduced [Mg^2+]: no effect
  effect on the Ki of reduced [Mg^2+]: no effect
Cyclic A kinase
  Ki: 104 ± 11.6 µM
Cyclic A kinase; cyclic A kinase, 20 μM ATP, Km for ATP
  Ki /Km: 14.60
